Data reported in PMC3523740 (Chemistry & biodiversity, 2012).
Read-outs that look alike come from different tables or passages of the source.

Columns and labels:
(M0)NP2 [1] = details: read-out: Kd^Hm (nM) at pH 5.5; cited from earlier work
NP2(D1A) [2] = details: read-out: Kd^Hm (nM) at pH 5.5; cited from earlier work
NP2(D1A) [3] = details: read-out: Kd^Hm (nM) at pH 7.5; cited from earlier work
(M0)NP2 [4] = details: read-out: Kd^Hm (nM) at pH 7.5; cited from earlier work
[5] = Stopped-flow kinetics of histamine binding and release; details: pH 5.5, calculated from Kd = koff/kon
[6] = Nitric oxide dissociation constant of the Fe; assay type: binding; details: pH 5.0, 27 °C
[7] = histamine, cited from earlier work
[8] = Kinetics of nitric oxide release; assay type: binding
[9] = read-out: Kd^NO at pH 7.5, nitric oxide; cited from earlier work

Compound	Kd ((M0)NP2 [1])	Kd (NP2(D1A) [2])	Kd (NP2(D1A) [3])	Kd ((M0)NP2 [4])	kon^Hm at pH 5.5 [5]	Kd^NO at pH 5.0 [6]	koff^Hm at pH 5.5 ([7]; pH 5.5)	koff^Hm at pH 7.5 ([7]; pH 7.5)	kon^Hm at pH 7.5 ([7]; pH 7.5)	kon^NO at pH 5.0 ([8]; pH 5.0, 27 °C)	koff^NO at pH 5.0 ([8]; pH 5.0, 27 °C, displacement by histamine, this work)	koff^NO at pH 7.5 ([8]; pH 7.5, 27 °C, displacement by histamine, this work)	kon^NO at pH 7.5 ([8]; pH 7.5, calculated from Kd = koff/kon)	Kd [9]
(M0)NP2: Recombinant nitrophorin 2 expressed in E. coli retaining methionine-0 from the start codon (N-terminus MDC…)	–	–	–	–	0.7 ± 0.1 ^a μM^−1s^−1	Too small to meas.	0.163 ± 0.011 ^b s^−1	0.056 ± 0.003 ^b s^−1	4.5 ± 0.1 ^b μM^−1s^−1	Too large to meas.	0.049 ± 0.002 ^TW s^−1	0.161 ± 0.005 ^TW s^−1	32.3 ± 6.5 ^a μM^−1s^−1	5 ± 1 nM
